Source: patent US20230301300A1, “HERBICIDAL COMPOSITIONS” (SYNGENTA CROP PROTECTION AG, priority 2020, published 2023)

Columns and labels:
Test in all cases: B2 Post-Emergence Efficacy - Test 2
Format in all cases: in vivo
Eleisine indica (ELEIN) = details: 15 days after application, 0=no damage, 100=total kill
Method in brief: (§1)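 Visual phytotoxicity on a 0–100 scale, where 100 means total kill, was recorded 15 days following a single post-emergence spray. The spray was an aqueous dilution of active ingredient in IF50 with 0.2% v/v Genapol X080, applied to 12-day-old plants.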

Sinapis arvensis (SINAR) = details: 15 days after application, 0-100 scale
Method in brief: as §1

[1] = test system: Alopecurus myosuroides (ALOMY); details: 15 days after application, 0-100 scale
Method in brief: as §1

Bromus tectorum (BROTE) = details: 15 days after application, 0-100 scale
Method in brief: as §1

[2] = test system: Digitaria sanguinalis (DIGSA); details: 15 days after application, 0=no damage, 100=total kill
Method in brief: as §1

[3] = test system: Echinochloa crus galli (ECHCG); details: 15 days after application, 0=no damage, 100=total kill
Method in brief: as §1

Bidens pilosa (BIDPI) = details: 15 days after application, 0-100 scale
Method in brief: as §1

[4] = test system: Chenopodium album (CHEAL); details: 15 days after application, 0-100 scale
Method in brief: as §1

Setaria faberi (SETFA) = details: 15 days after application, 0=no damage, 100=total kill
Method in brief: as §1

[5] = test system: Triticum aestivum (TRZAW); details: 15 days after application, 0-100 scale
Method in brief: as §1

Hordeum vulgare (HORVW) = details: 15 days after application, 0-100 scale
Method in brief: as §1

[6] = test system: Brachiaria plantaginea (BRAPL); details: 15 days after application, 0=no damage, 100=total kill
Method in brief: as §1

[7] = test system: Abutilon theophrasti (ABUTH); details: 15 days after application, 0-100 scale
Method in brief: as §1

[8] = test system: Euphorbia hetrophylla (EPHHL); details: 15 days after application, 0-100 scale
Method in brief: as §1

Zea mays (ZEAMX) = details: 15 days after application; for Herbicidal activity ZEAMX: 0-100 scale; for Herbicidal activity on a 0-100 scale, ZEAMX: 0=no damage, 100=total kill
Method in brief: as §1

Sorghum bicolour (SORVU) = details: 15 days after application, 0=no damage, 100=total kill
Method in brief: as §1

Lolium perenne (LOLPE) = details: 15 days after application, 0-100 scale
Method in brief: as §1

Stellaria media (STEME) = details: 15 days after application, 0-100 scale
Method in brief: as §1

## Cc1nn(C)c(=O)c(-c2c(F)ccc(Cl)c2CCc2ccc(F)cc2)c1O [Compound 1.048, 4-[3-chloro-6-fluoro-2-[2-(4-fluorophenyl)ethyl]phenyl]-5-hydroxy-2,6-dimethyl-pyridazin-3-one]
Eleisine indica (ELEIN); 15 g/Ha
  Herbicidal activity on a 0-100 scale, ELEIN: 0
Eleisine indica (ELEIN); 30 g/Ha
  Herbicidal activity on a 0-100 scale, ELEIN: 50
Eleisine indica (ELEIN); 60 g/Ha
  Herbicidal activity on a 0-100 scale, ELEIN: 60
Eleisine indica (ELEIN); 125 g/Ha
  Herbicidal activity on a 0-100 scale, ELEIN: 60
Eleisine indica (ELEIN); 250 g/Ha
  Herbicidal activity on a 0-100 scale, ELEIN: 80
Eleisine indica (ELEIN); 500 g/Ha
  Herbicidal activity on a 0-100 scale, ELEIN: 80
Sinapis arvensis (SINAR); 15 g/Ha
  Herbicidal activity SINAR: 40
Sinapis arvensis (SINAR); 30 g/Ha
  Herbicidal activity SINAR: 80
Sinapis arvensis (SINAR); 60 g/Ha
  Herbicidal activity SINAR: 80
Sinapis arvensis (SINAR); 125 g/Ha
  Herbicidal activity SINAR: 90
Sinapis arvensis (SINAR); 250 g/Ha
  Herbicidal activity SINAR: 90
Sinapis arvensis (SINAR); 500 g/Ha
  Herbicidal activity SINAR: 90
[1]; 15 g/Ha
  Herbicidal activity ALOMY: 20
[1]; 30 g/Ha
  Herbicidal activity ALOMY: 30
[1]; 60 g/Ha
  Herbicidal activity ALOMY: 70
[1]; 125 g/Ha
  Herbicidal activity ALOMY: 80
[1]; 250 g/Ha
  Herbicidal activity ALOMY: 80
[1]; 500 g/Ha
  Herbicidal activity ALOMY: 90
Bromus tectorum (BROTE); 15 g/Ha
  Herbicidal activity BROTE: 0
Bromus tectorum (BROTE); 30 g/Ha
  Herbicidal activity BROTE: 10
Bromus tectorum (BROTE); 60 g/Ha
  Herbicidal activity BROTE: 20
Bromus tectorum (BROTE); 125 g/Ha
  Herbicidal activity BROTE: 50
Bromus tectorum (BROTE); 250 g/Ha
  Herbicidal activity BROTE: 60
Bromus tectorum (BROTE); 500 g/Ha
  Herbicidal activity BROTE: 70
[2]; 15 g/Ha
  Herbicidal activity on a 0-100 scale, DIGSA: 0
[2]; 30 g/Ha
  Herbicidal activity on a 0-100 scale, DIGSA: 10
[2]; 60 g/Ha
  Herbicidal activity on a 0-100 scale, DIGSA: 20
[2]; 125 g/Ha
  Herbicidal activity on a 0-100 scale, DIGSA: 20
[2]; 250 g/Ha
  Herbicidal activity on a 0-100 scale, DIGSA: 50
[2]; 500 g/Ha
  Herbicidal activity on a 0-100 scale, DIGSA: 70
[3]; 15 g/Ha
  Herbicidal activity on a 0-100 scale, ECHCG: 60
[3]; 30 g/Ha
  Herbicidal activity on a 0-100 scale, ECHCG: 80
[3]; 60 g/Ha
  Herbicidal activity on a 0-100 scale, ECHCG: 80
[3]; 125 g/Ha
  Herbicidal activity on a 0-100 scale, ECHCG: 90
[3]; 250 g/Ha
  Herbicidal activity on a 0-100 scale, ECHCG: 90
[3]; 500 g/Ha
  Herbicidal activity on a 0-100 scale, ECHCG: 100
Bidens pilosa (BIDPI); 15 g/Ha
  Herbicidal activity BIDPI: 70
Bidens pilosa (BIDPI); 30 g/Ha
  Herbicidal activity BIDPI: 70
Bidens pilosa (BIDPI); 60 g/Ha
  Herbicidal activity BIDPI: 70
Bidens pilosa (BIDPI); 125 g/Ha
  Herbicidal activity BIDPI: 70
Bidens pilosa (BIDPI); 250 g/Ha
  Herbicidal activity BIDPI: 100
Bidens pilosa (BIDPI); 500 g/Ha
  Herbicidal activity BIDPI: 100
[4]; 125 g/Ha
  Herbicidal activity CHEAL: 70
[4]; 250 g/Ha
  Herbicidal activity CHEAL: 90
[4]; 500 g/Ha
  Herbicidal activity CHEAL: 100
Setaria faberi (SETFA); 15 g/Ha
  Herbicidal activity on a 0-100 scale, SETFA: 0
Setaria faberi (SETFA); 30 g/Ha
  Herbicidal activity on a 0-100 scale, SETFA: 40
Setaria faberi (SETFA); 60 g/Ha
  Herbicidal activity on a 0-100 scale, SETFA: 40
Setaria faberi (SETFA); 125 g/Ha
  Herbicidal activity on a 0-100 scale, SETFA: 70
Setaria faberi (SETFA); 250 g/Ha
  Herbicidal activity on a 0-100 scale, SETFA: 80
Setaria faberi (SETFA); 500 g/Ha
  Herbicidal activity on a 0-100 scale, SETFA: 100
[5]; 15 g/Ha
  Herbicidal activity TRZAW: 0
[5]; 30 g/Ha
  Herbicidal activity TRZAW: 10
[5]; 60 g/Ha
  Herbicidal activity TRZAW: 20
[5]; 125 g/Ha
  Herbicidal activity TRZAW: 20
[5]; 250 g/Ha
  Herbicidal activity TRZAW: 50
[5]; 500 g/Ha
  Herbicidal activity TRZAW: 80
Hordeum vulgare (HORVW); 15 g/Ha
  Herbicidal activity HORVW: 10
Hordeum vulgare (HORVW); 30 g/Ha
  Herbicidal activity HORVW: 10
Hordeum vulgare (HORVW); 60 g/Ha
  Herbicidal activity HORVW: 10
Hordeum vulgare (HORVW); 125 g/Ha
  Herbicidal activity HORVW: 40
Hordeum vulgare (HORVW); 250 g/Ha
  Herbicidal activity HORVW: 40
Hordeum vulgare (HORVW); 500 g/Ha
  Herbicidal activity HORVW: 80
[6]; 15 g/Ha
  Herbicidal activity on a 0-100 scale, BRAPL: 20
[6]; 30 g/Ha
  Herbicidal activity on a 0-100 scale, BRAPL: 60
[6]; 60 g/Ha
  Herbicidal activity on a 0-100 scale, BRAPL: 80
[6]; 125 g/Ha
  Herbicidal activity on a 0-100 scale, BRAPL: 80
[6]; 250 g/Ha
  Herbicidal activity on a 0-100 scale, BRAPL: 90
[6]; 500 g/Ha
  Herbicidal activity on a 0-100 scale, BRAPL: 100
[7]; 15 g/Ha
  Herbicidal activity ABUTH: 60
[7]; 30 g/Ha
  Herbicidal activity ABUTH: 80
[7]; 60 g/Ha
  Herbicidal activity ABUTH: 90
[7]; 125 g/Ha
  Herbicidal activity ABUTH: 90
[7]; 250 g/Ha
  Herbicidal activity ABUTH: 90
[7]; 500 g/Ha
  Herbicidal activity ABUTH: 100
[8]; 15 g/Ha
  Herbicidal activity EPHHL: 50
[8]; 30 g/Ha
  Herbicidal activity EPHHL: 70
[8]; 60 g/Ha
  Herbicidal activity EPHHL: 90
[8]; 125 g/Ha
  Herbicidal activity EPHHL: 90
[8]; 250 g/Ha
  Herbicidal activity EPHHL: 100
[8]; 500 g/Ha
  Herbicidal activity EPHHL: 100
Zea mays (ZEAMX); 15 g/Ha
  Herbicidal activity ZEAMX: 0
  Herbicidal activity on a 0-100 scale, ZEAMX: 0
Zea mays (ZEAMX); 30 g/Ha
  Herbicidal activity ZEAMX: 10
  Herbicidal activity on a 0-100 scale, ZEAMX: 10
Zea mays (ZEAMX); 60 g/Ha
  Herbicidal activity ZEAMX: 50
  Herbicidal activity on a 0-100 scale, ZEAMX: 50
Zea mays (ZEAMX); 125 g/Ha
  Herbicidal activity ZEAMX: 50
  Herbicidal activity on a 0-100 scale, ZEAMX: 50
Zea mays (ZEAMX); 250 g/Ha
  Herbicidal activity ZEAMX: 70
  Herbicidal activity on a 0-100 scale, ZEAMX: 70
Zea mays (ZEAMX); 500 g/Ha
  Herbicidal activity ZEAMX: 100
  Herbicidal activity on a 0-100 scale, ZEAMX: 100
Sorghum bicolour (SORVU); 15 g/Ha
  Herbicidal activity on a 0-100 scale, SORVU: 0
Sorghum bicolour (SORVU); 30 g/Ha
  Herbicidal activity on a 0-100 scale, SORVU: 30
Sorghum bicolour (SORVU); 60 g/Ha
  Herbicidal activity on a 0-100 scale, SORVU: 70
Sorghum bicolour (SORVU); 125 g/Ha
  Herbicidal activity on a 0-100 scale, SORVU: 70
Sorghum bicolour (SORVU); 250 g/Ha
  Herbicidal activity on a 0-100 scale, SORVU: 80
Sorghum bicolour (SORVU); 500 g/Ha
  Herbicidal activity on a 0-100 scale, SORVU: 90
Lolium perenne (LOLPE); 15 g/Ha
  Herbicidal activity LOLPE: 20
Lolium perenne (LOLPE); 30 g/Ha
  Herbicidal activity LOLPE: 40
Lolium perenne (LOLPE); 60 g/Ha
  Herbicidal activity LOLPE: 90
Lolium perenne (LOLPE); 125 g/Ha
  Herbicidal activity LOLPE: 90
Lolium perenne (LOLPE); 250 g/Ha
  Herbicidal activity LOLPE: 90
Lolium perenne (LOLPE); 500 g/Ha
  Herbicidal activity LOLPE: 90
Stellaria media (STEME); 15 g/Ha
  Herbicidal activity STEME: 90
Stellaria media (STEME); 30 g/Ha
  Herbicidal activity STEME: 90
Stellaria media (STEME); 60 g/Ha
  Herbicidal activity STEME: 90
Stellaria media (STEME); 125 g/Ha
  Herbicidal activity STEME: 100
Stellaria media (STEME); 250 g/Ha
  Herbicidal activity STEME: 100
Stellaria media (STEME); 500 g/Ha
  Herbicidal activity STEME: 100
